Assays:
[1] = system: mice; assay: Toxicity after intravenous administration to mice, two-week observation; assay type: in vivo; details: for Survived?: mice, intravenous, alive at end of two-week period
Method: Physiological salts of the various ligand/metal cation complexes described herein were administered intravenously to mice. […] The mice were considered to have "survived" administration of each agent if they were alive at the end of the two-week period.

[2] = Stability: TLC before and after heating; assay type: physicochemical; details: heating at 100°C for two hours
Method: TLC was performed on test species A and D, both before and after heating at 100°C for two hours.

[3] = Proton longitudinal relaxivity (1/τ1) measurements; assay type: physicochemical; details: 20 MHz, 0.1 M phosphate buffer at pH 7.2
Method: Measurements of proton longitudinal relaxivity (1/τ1) were performed on some of the test species listed above, and compared with those obtained using the following complexes outside the scope of this invention: (i) Gd(III) with diethylenetriamine pentaacetic acid (DTPA), and (ii) Fe(III) with N,N'-ethylenebis[(2-hydroxyphenyl)-glycinate] (EHPG). All measurements were obtained using a Bruckner PC/20 Minispec device operating at 20 MHz. All samples were dissolved in 0.1 M phosphate buffer at pH 7.2.

[4] = In vivo distribution of radioisotopically labeled analogs (radioassay of tissues); set-up: species or system mice; details: radioisotope analog; for concentration of agent in brain: within the first hour
Method: (§1) The resulting complexes were subjected to radiochromatography to insure acceptable radiopurity and identity with the parent complexes. They were then administered intravenously to mice in order to measure in vivo distribution and whole body clearance. The location of the test species in the mice's bodies and the rate at which the test species were cleared from the mice's bodies after administration were determined by radioassay of tissues and whole body counting, both performed by conventional gamma ray counting techniques. Concentration of activity in tissues was determined as activity per gram of tissue, and whole body counts were expressed as the percentage of whole body activity at a given time with respect to whole body activity immediately after injection. The results were as follows: • 1. Radioisotopes of Test Species A and B. In vivo distribution. […] By measurements taken one hour after administration, the ratio of the concentration of the test species in bone to that in whole blood was generally over 25:1, while the ratio of their concentration in kidney to that in blood was generally over 10:1. Even after 24 hours, when less than 5% of the administered dose remained in the body (see below), a high ratio of concentration of the test species in bone and kidney to that in blood was maintained. […] Whole Body Clearance. […] Radioisotope of Test species C. In vivo distribution. One hour after administration, the measured bone-to-blood concentration ratio was greater than 4.5:1, and the measured kidney-to-blood ratio was greater than 5.5:1. […] Whole Body Clearance. Within 24 hours of administration, over 95% of the tent species had been cleared from the body. • 3. Radioisotope of Test Species D. In vivo distribution. One hour after administration, the measured bone-to-blood concentration ratio was greater than 6:1, and the measured kidney-to-blood ratio was greater than 10:1. […] Whole Body Clearance.

[5] = Water solubility; assay type: physicochemical; details: read-out: soluble in water at concentrations
[6] = Whole body clearance of radioisotopically labeled analogs (whole body counting); assay type: in vivo; details: mice, intravenous, radioisotope analog
Method: Radioisotopically labeled analogs of test species selected from those listed above were synthesized, using radioisotopes of Fe(III) (iron-59), Cr(III) (chromium-51) and Gd(III) (gadolinium-153), and employing the general synthesis procedures described above. The resulting complexes were subjected to radiochromatography to insure acceptable radiopurity and identity with the parent complexes. They were then administered intravenously to mice in order to measure in vivo distribution and whole body clearance.
as §1, with “The” for “The resulting complexes were subjected to radiochromatography to insure acceptable radiopurity and identity with the parent complexes. They were then administered intravenously to mice in order to measure in vivo distribution and whole body clearance. The”

[7] = Relative equilibrium constant measurements (competition with EHPG for Fe(III)); assay type: physicochemical; details: 0.25M phosphate buffer at pH 7.2, heated overnight at 100°C, TLC and colour
Method: The highly colored Fe(III) complex of EHPG (used for comparison in part E of this example) was dissolved in 0.25 M phosphate buffer at pH 7.2, and an equimolar quantity of N,N',N''-tris(dihydroxyphosphorylmethyl)-1,4,7-triazacyclononane was added. The solution was heated overnight at 100°C.
The reverse experiment was also performed. The Fe(III) complex of N,N',N''-tris(dihydroxyphosphorylmethyl)-1,4,7-triazacyclononane was thus dissolved in 0.25M phosphate buffer at pH 7.2, and an equimolar quantity of EHPG was added. The solution was heated overnight at 100°C.

[8] = within 24 hours of administration

In the case of O=P(O)(O)CN1CCN(CP(=O)(O)O)CCN(CP(=O)(O)O)CC1 [Test Species F, N,N',N''-tris(dihydroxyphosphorylmethyl)-1,4,7-triazacyclononane], the “Survived?” value ([1]; Dose 8.0mM/kg, Rate 2.6mM/min/kg) is reported as “yes”.
For O=P(O)(O)CN1CCN(CP(=O)(O)O)CCN(CP(=O)(O)O)CC1 [Test Species A, N,N',N''-tris(dihydroxyphosphorylmethyl)-1,4,7-triazacyclononane], the “TLC before and after heating” value [2] was “A single, chromatographically distinct spot which did not vary as a result of the heating”, the “proton longitudinal relaxivity relative to the Fe(III) complex of EHPG (times greater)” value [3] was “two to three” and the “accumulation of activity in fractured tibia versus contralateral normal tibia” value ([4]; mice with a tibia broken two to four weeks prior to the study) was “significantly greater accumulation of activity”. For the same molecule, the “ratio of concentration in bone and kidney to that in blood” value ([4]; mice, intravenous, after 24 hours) was “high ratio”, the “activity in the brain” value ([4]; mice, intravenous, at all times following administration) was “very low activity” and the “concentration of radioactivity in bone and kidneys” value ([4]; mice, intravenous, within 2 minutes following administration) was “evidence of concentration of radioactivity in bone and kidneys”. For the same molecule, the solubility [5] was > 500 mg/mL, the “Survived?” value ([1]; Dose 11.8mM/kg, Rate 0.4mM/sec/kg) was “yes” and the “toxicity observed, versus the single, chromatographically distinct product” value ([1]; preparations made by alternate complexation procedures, containing multiple forms of the complex by TLC) was “substantially greater”. The “administered dose remained in the body” value ([6]; after 24 hours) was “less than 5%”, the “cleared from the body” value [6, 8] was “over 95%” and the “route of whole body clearance” value [6, 8] was “almost exclusively through the urine”.
With O=P(O)(O)CCN1CCN(CCP(=O)(O)O)CCN(CCP(=O)(O)O)CC1 [Test Species C, N,N',N''-tris(dihydroxyphosphorylethyl)-1,4,7-triazacyclononane] the “concentration of agent in brain” value ([4]; mice, intravenous) was “very low concentration”, the “Survived?” value ([1]; Dose 10.0mM/kg, Rate 2.0mM/min/kg) was “yes” and the “cleared from the body” value [6, 8] was “over 95%”.
In the case of “Fe(III) complex of N,N',N''-tris(dihydroxyphosphorylmethyl)-1,4,7-triazacyclononane”, the “species present after equimolar EHPG was added to the Fe(III) complex (reverse experiment)” value [7] is reported as “TLC showed only the presence of the Fe(III) N,N',N''-tris(dihydroxyphosphorylmethyl)-1,4,7-triazacyclononane complex”.
For O=P(O)(O)CN1CCN(CP(=O)(O)O)CCN(CP(=O)(O)O)CC1 [Test Species D, N,N',N''-tris(dihydroxyphosphorylmethyl)-1,4,7-triazacyclononane], the “concentration of agent in brain” value ([4]; mice, intravenous) was “very low concentration” and the “Survived?” value ([1]; Dose 2.9mM/kg, Rate 0.5mM/sec/kg) was “yes”.
With O=P(O)(O)CN1CCN(CP(=O)(O)O)CCN(CP(=O)(O)O)CC1 [Test Species G, N,N',N''-tris(dihydroxyphosphorylmethyl)-1,4,7-triazacyclononane] the “Survived?” value ([1]; Dose 3.1mM/kg, Rate 0.8mM/min/kg) was “yes”.
For O=P(O)(O)CN1CCN(CP(=O)(O)O)CCN(CP(=O)(O)O)CC1 [Test Species E, N,N',N''-tris(dihydroxyphosphorylmethyl)-1,4,7-triazacyclononane], the “Survived?” value ([1]; Dose 2.9mM/kg, Rate 1.1mM/min/kg) was “yes”.
In the case of O=P(O)(O)CN1CCN(CP(=O)(O)O)CCN(CP(=O)(O)O)CC1 [Test Species B, N,N',N''-tris(dihydroxyphosphorylmethyl)-1,4,7-triazacyclononane], the “Survived?” value ([1]; Dose 9.8mM/kg, Rate 0.7mM/min/kg) is reported as “yes”.
For O=P(O)(O)CN1CCN(CP(=O)(O)O)CCN(CP(=O)(O)O)CC1 [N,N',N''-tris(dihydroxyphosphorylmethyl)-1,4,7-triazacyclononane], the “species present after equimolar ligand was added to Fe(III) complex of EHPG” value [7] was “TLC showed only the presence of the Fe(III) N,N',N''-tris(dihydroxyphosphorylmethyl)-1,4,7-triazacyclononane complex”.

Source: patent EP0513000B1, “MRI IMAGE ENHANCEMENT OF BONE AND RELATED TISSUE USING COMPLEXES OF PARAMAGNETIC CATIONS AND POLYPHOSPHONATE LIGANDS” (CONCAT LTD., priority 1989, dated 1991)
